Data published in ChEMBL document CHEMBL1142445, “Carbonic anhydrase inhibitors: inhibition of Plasmodium falciparum carbonic anhydrase with aromatic/heterocyclic sulfonamides-in vitro and in vivo studies” (Bioorg Med Chem Lett, 2008).
Activity calls are given as the source filed them. The calls are words filed in the database; no cut-off is given here.

How the values were obtained:
[1] = (§1) Inhibition of Plasmodium falciparum recombinant carbonic anhydrase
Plasmodium falciparum [2] = experiment: Ex vivo inhibition of Plasmodium falciparum growth in cultured cells after 48hrs as [3H]hypoxanthine uptake; type: functional, organism-based
Plasmodium falciparum [3] = experiment: as §1
Plasmodium berghei [4] = experiment: Antimalarial activity against Plasmodium berghei infected mice (Mus musculus); type: functional; settings: read-out: ID50 (the source's name)
Plasmodium berghei [5] = experiment: Antimalarial activity against Plasmodium berghei infected mice (Mus musculus) at 2.5 to 25 mg/kg; type: functional, organism-based
KB = experiment: Cytotoxicity against human KB cells; type: functional, cell-based
BC = experiment: Cytotoxicity against human BC cells; type: functional, cell-based

SMILES: NS(=O)(=O)c1ccccc1NC(=O)c1cc2ccccc2oc1=O
- Ki [1]: 18.5 µM
- IC50 (Plasmodium falciparum [2]): > 50 µM

SMILES: COc1ccc2c(CC(=O)Nc3ccc(S(N)(=O)=O)cc3)cc(=O)oc2c1
- Ki [1]: 0.97 µM
- IC50 (Plasmodium falciparum [2]): > 50 µM

SMILES: C[C@@H]1CC[C@H]2[C@@H](C)C(=O)O[C@@H]3O[C@@]4(C)CC[C@@H]1[C@]32OO4
- Activity (Plasmodium falciparum [3]): inactive

SMILES: NS(=O)(=O)c1nnc(NS(=O)(=O)c2c(F)c(F)c(F)c(F)c2F)s1
- Ki [1]: 2.58 µM
- IC50 (Plasmodium falciparum [2]): > 50 µM

SMILES: CCN(CC)C(=S)SNc1ccc(S(N)(=O)=O)cc1
- Ki [1]: 3 µM
- IC50 (Plasmodium falciparum [2]): > 50 µM

SMILES: CCN(CC)CCCC(C)Nc1ccnc2cc(Cl)ccc12 (stereo not drawn) [CHLOROQUINE]
- Activity (Plasmodium falciparum [3]): inactive
- ED50 (Plasmodium berghei [4]): 5 mg/kg

SMILES: C=C[C@H]1CN2CC[C@H]1C[C@H]2[C@H](O)c1ccnc2ccc(OC)cc12
- Activity (Plasmodium falciparum [3]): inactive

SMILES: Cn1nc(S(N)(=O)=O)s/c1=N/C(=O)c1c(F)c(F)c(F)c(F)c1F
- Ki [1]: 6.87 µM
- IC50 (Plasmodium falciparum [2]): > 50 µM

SMILES: CN(C)c1ccc(/C=N/c2ccc(S(N)(=O)=O)cc2)cc1
- Ki [1]: > 25 µM
- IC50 (Plasmodium falciparum [2]): > 50 µM

SMILES: CC(=O)NS(=O)(=O)c1ccc(NC(=S)Nc2ccc(S(N)(=O)=O)cc2)cc1
- Ki [1]: 4.62 µM
- IC50 (Plasmodium falciparum [2]): > 50 µM

SMILES: COc1ccc2c(CC(=O)NNc3ccc(S(N)(=O)=O)cc3)cc(=O)oc2c1
- Ki [1]: 3.51 µM
- IC50 (Plasmodium falciparum [2]): > 50 µM

SMILES: CN(C)c1ccc(/C=N/CCCc2ccc(S(N)(=O)=O)cc2)cc1
- Ki [1]: > 25 µM
- IC50 (Plasmodium falciparum [2]): > 50 µM

SMILES: NS(=O)(=O)c1nnc(NC(=S)NC(=O)Nc2ccccc2)s1
- Ki [1]: 6.73 µM
- IC50 (Plasmodium falciparum [2]): > 50 µM

SMILES: NS(=O)(=O)c1ccc(NC(=O)Nc2ccc(Cl)c(Cl)c2)cc1
- Ki [1]: 5.58 µM
- IC50 (Plasmodium falciparum [2]): > 50 µM

SMILES: NS(=O)(=O)c1nnc(NC(=O)c2c(F)c(F)c(F)c(F)c2F)s1
- Ki [1]: 3.44 µM
- IC50 (Plasmodium falciparum [2]): > 50 µM

SMILES: NS(=O)(=O)c1ccc(CCNC(=O)c2cc3ccccc3oc2=O)cc1
- Ki [1]: 13.2 µM
- IC50 (Plasmodium falciparum [2]): > 50 µM

SMILES: NS(=O)(=O)c1ccc(NNC(=O)c2cc3ccccc3oc2=O)cc1
- Ki [1]: 4.06 µM
- IC50 (Plasmodium falciparum [2]): > 50 µM

SMILES: CCN(CC)C(=S)SNCc1ccc(S(N)(=O)=O)cc1
- Ki [1]: 8.39 µM
- IC50 (Plasmodium falciparum [2]): > 50 µM

SMILES: COc1ccc2c(CC(=O)Nc3cccc(S(N)(=O)=O)c3)cc(=O)oc2c1
- Ki [1]: 4.58 µM
- IC50 (Plasmodium falciparum [2]): > 50 µM

SMILES: COc1ccc2c(CC(=O)Nc3ccccc3S(N)(=O)=O)cc(=O)oc2c1
- Ki [1]: 1.44 µM
- IC50 (Plasmodium falciparum [2]): > 50 µM

SMILES: NS(=O)(=O)c1ccc(C/N=C/c2ccccc2Cl)cc1
- Activity (Plasmodium berghei [5]): inactive
- Ki [1]: 0.25 µM
- Activity (KB): inactive
- IC50 (Plasmodium falciparum [2]): 3.89 µM
- Activity (BC): inactive

SMILES: NS(=O)(=O)c1cc(S(N)(=O)=O)c(C(F)(F)F)cc1NC(=O)c1cc2ccccc2oc1=O
- Ki [1]: 9.03 µM
- IC50 (Plasmodium falciparum [2]): > 50 µM

SMILES: NS(=O)(=O)c1ccc(NC(=O)c2ccc(S(N)(=O)=O)cc2)cc1
- Ki [1]: 3.05 µM
- IC50 (Plasmodium falciparum [2]): > 50 µM

SMILES: NS(=O)(=O)c1ccc(NC(=O)c2cc3ccccc3oc2=O)cc1
- Ki [1]: 5.82 µM
- IC50 (Plasmodium falciparum [2]): > 50 µM

SMILES: NS(=O)(=O)c1ccc(CNC(=O)c2cc3ccccc3oc2=O)cc1
- Ki [1]: 5.05 µM
- IC50 (Plasmodium falciparum [2]): > 50 µM

SMILES: CN(C)c1ccc(/C=N/Cc2ccc(S(N)(=O)=O)cc2)cc1
- Ki [1]: > 25 µM
- IC50 (Plasmodium falciparum [2]): > 50 µM

SMILES: NS(=O)(=O)c1ccc(/N=C/c2ccc3ccccc3c2Br)cc1
- Ki [1]: 4.16 µM
- IC50 (Plasmodium falciparum [2]): > 50 µM

SMILES: NS(=O)(=O)c1ccccc1NC(=O)N(c1ccccc1)c1ccccc1
- Ki [1]: 1.99 µM
- IC50 (Plasmodium falciparum [2]): > 50 µM

SMILES: NS(=O)(=O)c1nnc(NS(=O)(=O)C(F)(F)C(F)(F)C(F)(F)C(F)(F)C(F)(F)C(F)(F)C(F)(F)C(F)(F)F)s1
- Ki [1]: 0.192 µM
- IC50 (Plasmodium falciparum [2]): > 50 µM

SMILES: Cn1ccnc1/C=N/CCCc1ccc(S(N)(=O)=O)cc1
- Ki [1]: > 25 µM
- IC50 (Plasmodium falciparum [2]): > 50 µM

SMILES: CC(=O)Nc1nnc(S(N)(=O)=O)s1 [ACETAZOLAMIDE]
- Activity (Plasmodium berghei [5]): inactive
- Ki [1]: 0.315 µM
- Activity (KB): inactive
- IC50 (Plasmodium falciparum [2]): 20 µM
- Activity (BC): inactive

SMILES: NS(=O)(=O)c1ccc(CNC(=O)N(c2ccccc2)c2ccccc2)cc1
- Ki [1]: 16 µM
- IC50 (Plasmodium falciparum [2]): > 50 µM

SMILES: NC(=S)Nc1ccc(S(N)(=O)=O)cc1
- Ki [1]: 2.1 µM
- IC50 (Plasmodium falciparum [2]): > 50 µM

SMILES: NS(=O)(=O)c1ccc(NS(=O)(=O)c2ccc(NC(=O)N(c3ccccc3)c3ccccc3)cc2)cc1
- Ki [1]: 16.5 µM
- IC50 (Plasmodium falciparum [2]): > 50 µM

SMILES: NS(=O)(=O)c1ccc(CNC(=S)NC(=O)c2ccc(Cl)c(Cl)c2)cc1
- Ki [1]: 0.18 µM
- Activity (KB): inactive
- IC50 (Plasmodium falciparum [2]): 1 µM
- ED50 (Plasmodium berghei [4]): 10 mg/kg
- Activity (BC): inactive

SMILES: COc1ccc2c(CC(=O)Nc3cc(C(F)(F)F)c(S(N)(=O)=O)cc3S(N)(=O)=O)cc(=O)oc2c1
- Ki [1]: 2.52 µM
- IC50 (Plasmodium falciparum [2]): > 50 µM

SMILES: NS(=O)(=O)c1cccc(NC(=O)c2cc3ccccc3oc2=O)c1
- Ki [1]: > 25 µM
- IC50 (Plasmodium falciparum [2]): > 50 µM

SMILES: NS(=O)(=O)c1ccccc1NS(=O)(=O)c1c(F)c(F)c(F)c(F)c1F
- Ki [1]: 3.06 µM
- IC50 (Plasmodium falciparum [2]): > 50 µM
